Patent US20080286809A1, “Methods” (MEDICAL RESEARCH COUNCIL, priority 2005, published 2008)

Target: T1, WNK1 (Homo sapiens, UniProt Q9H4A3)
T1 construct: made in house
Assay: ELISA assay for inhibitors of WNK activity: anti-phospho-SPAK-S373 detection of OSR1(D164A) phosphorylation
Type: biochemical
Conditions: non-radioactive ELISA; immobilised OSR1(D164A) substrate; anti-phospho-SPAK-S373 antibody; absorbance readout; read-out: IC50, Hypericin Inhibition of WNK1
Method: An example of a non-radioactive assay, suitable for screening of small drug-like compound libraries, has been developed using anti-phospho-SPAK antibodies to detect phosphorylation of WNK substrates SPAK or OSR1 in an ELISA format.
Anti-phospho-SPAK-S373 and anti-phospho-SPAK-T233 were anti-phospho-peptide antibodies raised in sheep for use in western blotting. They were evaluated for use in the ELISA format. Anti-phospho-SPAK-S373 was active in the ELISA with native OSR1 protein. SPAK and OSR1 are interchangeable in the assay as the amino acid sequences are very similar overall and have the same sequence flanking the phosphorylation sites. […] Wild type OSR1 had significant autophosphorylation/ATP hydrolytic activity, and could lead to depletion of substrates during the time course of the reaction.
The assay was performed in maxisorp (Nunc) 384-clear plates. OSR1(D164A), 30 ng/well, was coated overnight at 4° C. in Tris buffered saline (TBS) pH 7.4. […] Plates were read on an absorbance reader at […]. […]
The assay was tolerant to a wide range of ATP concentrations (1-1000 μM) and 1% DMSO (compound storage solvent). Compound interference by autofluorescence, quenching or absorbance is minimised as it is heterogeneous involving several wash steps. […]

T1 sequence (Q9H4A3 whole entry): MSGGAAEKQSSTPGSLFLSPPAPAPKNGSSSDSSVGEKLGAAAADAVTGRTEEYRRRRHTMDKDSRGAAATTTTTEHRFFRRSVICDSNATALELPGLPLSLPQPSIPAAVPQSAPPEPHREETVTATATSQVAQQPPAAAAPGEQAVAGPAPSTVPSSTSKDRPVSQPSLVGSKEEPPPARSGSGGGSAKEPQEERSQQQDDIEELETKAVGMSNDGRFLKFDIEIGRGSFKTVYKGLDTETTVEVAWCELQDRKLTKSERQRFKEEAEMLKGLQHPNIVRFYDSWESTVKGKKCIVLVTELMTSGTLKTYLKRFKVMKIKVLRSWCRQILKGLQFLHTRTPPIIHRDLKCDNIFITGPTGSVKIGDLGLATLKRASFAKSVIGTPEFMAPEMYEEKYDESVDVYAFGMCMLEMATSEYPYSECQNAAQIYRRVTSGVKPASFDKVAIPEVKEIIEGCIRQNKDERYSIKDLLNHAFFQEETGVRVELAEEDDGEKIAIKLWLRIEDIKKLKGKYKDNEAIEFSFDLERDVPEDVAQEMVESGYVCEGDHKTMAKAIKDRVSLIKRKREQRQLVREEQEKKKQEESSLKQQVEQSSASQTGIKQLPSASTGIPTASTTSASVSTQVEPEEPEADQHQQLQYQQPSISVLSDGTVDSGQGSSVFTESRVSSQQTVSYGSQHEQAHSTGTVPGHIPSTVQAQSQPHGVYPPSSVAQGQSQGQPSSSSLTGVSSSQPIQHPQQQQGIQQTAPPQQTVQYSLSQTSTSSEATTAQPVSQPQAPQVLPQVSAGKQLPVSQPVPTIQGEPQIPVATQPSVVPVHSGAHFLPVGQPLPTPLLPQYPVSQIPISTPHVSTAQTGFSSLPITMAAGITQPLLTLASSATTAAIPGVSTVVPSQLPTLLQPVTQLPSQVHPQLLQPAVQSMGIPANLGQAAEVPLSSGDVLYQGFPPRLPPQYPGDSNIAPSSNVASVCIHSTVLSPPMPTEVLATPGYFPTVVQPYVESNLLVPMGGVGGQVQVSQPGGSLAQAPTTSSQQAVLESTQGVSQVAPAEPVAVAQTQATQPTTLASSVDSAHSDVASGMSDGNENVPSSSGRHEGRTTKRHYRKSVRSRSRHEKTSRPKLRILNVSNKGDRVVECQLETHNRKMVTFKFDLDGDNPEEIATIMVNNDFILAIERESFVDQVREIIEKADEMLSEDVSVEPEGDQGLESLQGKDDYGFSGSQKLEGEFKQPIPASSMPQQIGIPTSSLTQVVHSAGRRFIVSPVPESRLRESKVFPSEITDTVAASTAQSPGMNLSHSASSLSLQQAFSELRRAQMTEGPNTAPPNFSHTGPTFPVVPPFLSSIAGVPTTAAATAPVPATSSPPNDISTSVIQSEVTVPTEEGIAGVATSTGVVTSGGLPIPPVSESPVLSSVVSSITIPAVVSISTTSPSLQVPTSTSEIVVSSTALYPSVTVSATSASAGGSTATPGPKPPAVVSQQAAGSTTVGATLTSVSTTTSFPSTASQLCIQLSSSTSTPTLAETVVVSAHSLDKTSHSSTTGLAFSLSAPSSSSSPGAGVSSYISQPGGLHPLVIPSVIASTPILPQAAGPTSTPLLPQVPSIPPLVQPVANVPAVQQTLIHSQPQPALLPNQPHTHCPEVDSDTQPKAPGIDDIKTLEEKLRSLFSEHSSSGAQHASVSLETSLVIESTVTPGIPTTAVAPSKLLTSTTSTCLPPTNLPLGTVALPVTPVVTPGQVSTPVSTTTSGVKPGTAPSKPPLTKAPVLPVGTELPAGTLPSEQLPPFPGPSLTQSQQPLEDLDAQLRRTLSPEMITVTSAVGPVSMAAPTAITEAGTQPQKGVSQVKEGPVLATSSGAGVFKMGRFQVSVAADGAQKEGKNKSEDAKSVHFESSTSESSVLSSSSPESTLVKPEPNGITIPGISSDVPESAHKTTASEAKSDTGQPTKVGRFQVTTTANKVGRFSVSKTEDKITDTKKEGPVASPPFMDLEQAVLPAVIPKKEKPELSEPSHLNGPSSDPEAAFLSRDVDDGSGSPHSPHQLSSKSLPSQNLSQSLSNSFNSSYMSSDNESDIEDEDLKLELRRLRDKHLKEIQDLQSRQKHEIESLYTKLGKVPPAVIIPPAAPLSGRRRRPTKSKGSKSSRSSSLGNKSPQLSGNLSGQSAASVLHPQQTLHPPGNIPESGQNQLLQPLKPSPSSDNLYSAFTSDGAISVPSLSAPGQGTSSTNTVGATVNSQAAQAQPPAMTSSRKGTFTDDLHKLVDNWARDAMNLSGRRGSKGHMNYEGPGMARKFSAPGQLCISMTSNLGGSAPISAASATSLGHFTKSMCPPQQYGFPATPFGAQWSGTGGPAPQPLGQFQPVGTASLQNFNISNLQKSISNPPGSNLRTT

In the case of `Cc1cc(O)c2c(=O)c3c(O)cc(O)c4c5c(O)cc(O)c6c(=O)c7c(O)cc(C)c8c1c2c(c34)c(c78)c65` [Hypericin], the IC50 is reported as 1.5 µM.
